Results from patent US20240041840A1 (Areteia Therapeutics, Inc., priority 2020, published 2024).
Like-named read-outs stand apart in the source and are kept apart here.

Assays:
[1] = tested on: eosinophil peroxidase (EPX); conditions: worded as embodiment
Description: Eosinophil peroxidase (EPX) is a granule protein uniquely secreted by eosinophils which can be detected and quantified using an enzyme-linked immunosorbent assay (ELISA). EPX is measured from mucosal swabs or sputum samples. […] In embodiments, normal nasal EPX levels are less than about 10 ng/mg of total protein, whereas moderate to severe asthma of the eosinophilic phenotype may be diagnosed as having nasal EPX levels greater than about 10 ng/mg of total protein. […] Normal induced sputum EPX levels may be less than about 200 ng/mL/g recovered sputum, whereas moderate to severe asthma of the eosinophilic phenotype is diagnosed as having induced sputum EPX levels greater than about 200 ng/mL/g recovered sputum.
(§1) Evaluation of Efficacy: Blood eosinophil count, changes in pulmonary function (FEV1), Asthma Control Questionnaire (ACQ-6), Asthma Control Questionnaire (ACQ-7), Asthma Quality of Life Questionnaire (AQLQ), exhaled nitric oxide, pharyngeal and nasal eosinophil peroxidase were collected periodically during the study.

[2] = tested on: subjects with eosinophilic asthma
Description: Pulmonary function is measured by performing a spirometry, which measures forced expiratory volume in is (FEV1), the volume of air moved in the first second of exhalation, this is a well-accepted measure of asthma. Forced vital capacity (FVC) is the total volume of air exhaled during the entire forced expiratory volume (FEV) test. The FEV1/FVC ratio is a calculated measure that may provide a more specific measure of bronchoconstriction, independent of processes such as air trapping. Pulmonary function testing can be tested pre-bronchodilator (after waiting a sufficient time so that all bronchodilator medications have cleared) or post-bronchodilator, typically 15-30 minutes after inhaling a short-acting bronchodilator, such as albuterol. Bronchodilator reversibility (BDR) is calculated and assessed by analyzing FEV1 pre- and post-bronchodilator, and calculating the change both as absolute (ml) and percentage change.
Although some of the responsible factors are modifiable, such as suboptimal medication adherence and poor inhaler technique, others reflect intrinsic deficiencies in available asthma pharmacotherapy. This deficiency is particularly apparent in patients prone to severe asthma exacerbations. […] However, all of the biologics require parenteral administration. […] A 4-arm dose ranging placebo-controlled design was chosen to provide a range of drug exposure. Blood eosinophil lowering was chosen as the primary endpoint to facilitate identification of the lowest effective dose for use in future clinical development. The Primary Assessment Period of 12 weeks was chosen to provide adequate time to observe both pharmacodynamic endpoints, such as eosinophil lowering, as well as the clinical endpoints that may improve as a consequence of eosinophil lowering (FEV1, FVC, ACQ-6, ACQ-7, and AQLQ). The 12-week Eosinophil Recovery Period was chosen based on expected recovery to near baseline count in most subjects.

[3] = tested on: subjects with eosinophilic asthma; remark: listed apart in the source
Text: Evaluation of Safety: Physical examination, vital signs (systolic and diastolic blood pressure, respiratory rate, heart rate, and temperature), body weight, 12-lead ECG, clinical laboratory evaluations (hematology, blood chemistry, and urinalysis), pregnancy testing, adverse event monitoring, and concomitant medication were monitored throughout the study. […] A neutropenia case report form was utilized during the study to capture detailed clinical information concurrent with any laboratory events of neutropenia.

[4] = tested on: subjects with eosinophilic asthma; conditions: for ACQ-6 Change from Baseline LSM / ACQ-6 Difference vs Placebo LSM (95% CI): 12 weeks
Text: The ACQ cutoff for well-controlled asthma is a score of about 0.75, and the ACQ cutoff for uncontrolled asthma is a score of about ≥1.5. An ACQ score change of ≥0.5 is considered clinically significant.
as §1
Juniper Asthma Control Six Point Questionnaire (ACQ-6)—Baseline and visits 5, 8, 11 and 14. The ACQ-6 will be used to assess improvements in asthma symptom control (6). The ACQ-6 was originally validated in participants with asthma aged 17 to 90 years (2, 3, and is one of several asthma control measures recommended by GINA Guidelines). The ACQ-6 consists of 6 items: 5 items on symptom assessment, 1 item on rescue bronchodilator use. The ACQ-6 has been fully validated, including a minimal important difference (MID) or smallest change that can be considered clinically important (0.5). The ACQ-6 will be self-administered at the clinic (questions 1-6 only) and it only takes a few minutes to complete. Participants are asked how they have been feeling during the past week and to score each item on a […] response scale, where 0 indicates ‘totally controlled’ and 6 indicates ‘severely uncontrolled.’ The total score is calculated as the mean of all questions. The questionnaire should always be completed before any other assessments.

Which “Reduction of the level of nasal EPX” value ([1]; daily dose of about 75 mg) does the source give for `CCCN[C@@H]1CCc2nc(N)sc2C1` [dexpramipexole, (6R)-2-amino-4,5,6,7-tetrahydro-6-(propylamino) benzothiazole] here?
Its value is “about 36%”.

What about the “Reduction of the level of nasal EPX” value ([1]; daily dose of about 150 mg) of the same molecule?
Its value is “about 83%”.

What about the “Reduction of the level of nasal EPX” value ([1]; daily dose of about 300 mg) of the same molecule?
Its value is “about 89%”.

What about the “Pre-Bronchodilator FVC, % change from Baseline, mean” value (“Pre-Bronchodilator FVC, % change” below) ([2]; 75 mg/day, Week 4) of the same molecule?
The value was 2.82%.

And the “Pre-bronchodilator FVC change from Baseline LSM” value (shortened to “Pre-bronchodilator FVC change”) ([2]; 75 mg/day, Week 4)?
Its value is 0.0925.

And the “Pre-bronchodilator FVC difference versus Placebo LSM” value ([2]; 75 mg/day, Week 4)?
Its value is 0.0785.

What about the “Pre-Bronchodilator FVC, % change” value ([2]; 75 mg/day, Week 8) of the same molecule?
The value was 7.17%.

And the “Pre-bronchodilator FVC change” value ([2]; 75 mg/day, Week 8)?
Its value is 0.155.

What about the “Pre-bronchodilator FVC difference versus Placebo LSM” value ([2]; 75 mg/day, Week 8) of the same molecule?
The value was 0.149.

What about the “Pre-Bronchodilator FVC, % change” value ([2]; 75 mg/day, Week 12) of the same molecule?
Its value is 7.93%.

And the “Pre-bronchodilator FVC change” value ([2]; 75 mg/day, Week 12)?
Its value is 0.181.

And the “Pre-bronchodilator FVC difference versus Placebo LSM” value ([2]; 75 mg/day, Week 12)?
The value was 0.140.

What about the “Pre-Bronchodilator FVC, % change” value ([2]; 75 mg/day, Week 16 or Week 18) of the same molecule?
Its value is 13.4%.

And the “Pre-bronchodilator FVC change” value ([2]; 75 mg/day, Week 16 or Week 18)?
The value was 0.297.

What about the “Pre-bronchodilator FVC difference versus Placebo LSM” value ([2]; 75 mg/day, Week 16 or Week 18) of the same molecule?
The value was 0.329.

And the “Pre-Bronchodilator FVC, % change” value ([2]; 150 mg/day, Week 4)?
Its value is 3.54%.

What about the “Pre-bronchodilator FVC change” value ([2]; 150 mg/day, Week 4) of the same molecule?
The value was 0.122.

What about the “Pre-bronchodilator FVC difference versus Placebo LSM” value ([2]; 150 mg/day, Week 4) of the same molecule?
The value was 0.108.

What about the “Pre-Bronchodilator FVC, % change” value ([2]; 150 mg/day, Week 8) of the same molecule?
Its value is 5.28%.

And the “Pre-bronchodilator FVC change” value ([2]; 150 mg/day, Week 8)?
The value was 0.152.

And the “Pre-bronchodilator FVC difference versus Placebo LSM” value ([2]; 150 mg/day, Week 8)?
Its value is 0.146.

What about the “Pre-Bronchodilator FVC, % change” value ([2]; 150 mg/day, Week 12) of the same molecule?
The value was 3.63%.

What about the “Pre-bronchodilator FVC change” value ([2]; 150 mg/day, Week 12) of the same molecule?
Its value is 0.0714.

What about the “Pre-bronchodilator FVC difference versus Placebo LSM” value ([2]; 150 mg/day, Week 12) of the same molecule?
Its value is 0.0304.

What about the “Pre-Bronchodilator FVC, % change” value ([2]; 150 mg/day, Week 16 or Week 18) of the same molecule?
Its value is 7.33%.

What about the “Pre-bronchodilator FVC change” value ([2]; 150 mg/day, Week 16 or Week 18) of the same molecule?
The value was 0.143.

What about the “Pre-bronchodilator FVC difference versus Placebo LSM” value ([2]; 150 mg/day, Week 16 or Week 18) of the same molecule?
The value was 0.175.

And the “Pre-Bronchodilator FVC, % change” value ([2]; 300 mg/day, Week 4)?
The value was 1.91%.

What about the “Pre-bronchodilator FVC change” value ([2]; 300 mg/day, Week 4) of the same molecule?
The value was 0.0983.

And the “Pre-bronchodilator FVC difference versus Placebo LSM” value ([2]; 300 mg/day, Week 4)?
The value was 0.0844.

And the “Pre-Bronchodilator FVC, % change” value ([2]; 300 mg/day, Week 8)?
Its value is 11.5%.

And the “Pre-bronchodilator FVC change” value ([2]; 300 mg/day, Week 8)?
Its value is 0.322.

What about the “Pre-bronchodilator FVC difference versus Placebo LSM” value ([2]; 300 mg/day, Week 8) of the same molecule?
The value was 0.316.

And the “Pre-Bronchodilator FVC, % change” value ([2]; 300 mg/day, Week 12)?
The value was 8.95%.

What about the “Pre-bronchodilator FVC change” value ([2]; 300 mg/day, Week 12) of the same molecule?
Its value is 0.257.

And the “Pre-bronchodilator FVC difference versus Placebo LSM” value ([2]; 300 mg/day, Week 12)?
Its value is 0.216.

And the “Pre-Bronchodilator FVC, % change” value ([2]; 300 mg/day, Week 16 or Week 18)?
Its value is 9.11%.

What about the “Pre-bronchodilator FVC change” value ([2]; 300 mg/day, Week 16 or Week 18) of the same molecule?
Its value is 0.267.

And the “Pre-bronchodilator FVC difference versus Placebo LSM” value ([2]; 300 mg/day, Week 16 or Week 18)?
Its value is 0.299.

And the Safety and tolerability ([3]; 300 mg/day and 150 mg/day doses, KNS-760704-AS201 trial)?
The Safety and tolerability was “Lastly, the excellent safety and tolerability of the above doses in the KNS-760704-AS201 trial and in previous”.

What about the Tolerability ([3]; across all dose levels (75, 150, 300 mg/day, 12 weeks)) of the same molecule?
Its Tolerability is “well-tolerated”.

What about the “ACQ-6 Change from Baseline LSM” value ([4]; 75 mg/day) of the same molecule?
The value was −0.419.

What about the “ACQ-6 Difference vs Placebo LSM (95% CI)” value ([4]; 75 mg/day) of the same molecule?
The value was −0.0276 (−0.560, 0.505).

And the “ACQ-6 Change from Baseline LSM” value ([4]; 150 mg/day)?
The value was −0.437.

What about the “ACQ-6 Difference vs Placebo LSM (95% CI)” value ([4]; 150 mg/day) of the same molecule?
The value was −0.0457 (−0.575, 0.484).

What about the “ACQ-6 Change from Baseline LSM” value ([4]; 300 mg/day) of the same molecule?
The value was −0.655.

And the “ACQ-6 Difference vs Placebo LSM (95% CI)” value ([4]; 300 mg/day)?
The value was −0.264 (−0.772, 0.245).

And the ACQ-6 scores ([4]; across several dose groups, 12 weeks (Table 13))?
The ACQ-6 scores was “improved”.
